# Source: patent US20230234936A1, “COMPOUND FOR TARGETING AND DEGRADING PROTEIN, AND PREPARATION METHOD THEREFOR AND USE THEREOF” (SHANGHAI LEADINGTAC PHARMACEUTICAL CO., LTD., priority 2020, published 2023)
# Biological target: T1, IRAK4 kinase (Homo sapiens, UniProt Q9NWZ3)
# T1 sequence (Q9NWZ3 1-460): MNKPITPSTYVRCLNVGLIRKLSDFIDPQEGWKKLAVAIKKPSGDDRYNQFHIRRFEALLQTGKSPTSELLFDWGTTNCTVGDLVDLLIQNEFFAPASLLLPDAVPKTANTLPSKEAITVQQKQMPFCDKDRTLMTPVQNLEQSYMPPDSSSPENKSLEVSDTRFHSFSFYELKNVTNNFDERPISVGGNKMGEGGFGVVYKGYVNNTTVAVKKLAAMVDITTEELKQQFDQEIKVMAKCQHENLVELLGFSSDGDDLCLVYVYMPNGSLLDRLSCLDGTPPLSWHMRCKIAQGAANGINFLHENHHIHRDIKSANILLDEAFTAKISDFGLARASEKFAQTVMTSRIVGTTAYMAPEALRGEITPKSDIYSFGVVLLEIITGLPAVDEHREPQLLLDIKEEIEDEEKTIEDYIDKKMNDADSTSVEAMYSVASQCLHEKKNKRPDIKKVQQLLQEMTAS
# Test: IRAK4 kinase activity test (KinEASE-STK S1 HTRF kit)
# Format: biochemical
# Conditions: 2.5 nM kinase, 1 μM biotinylated polypeptide substrate, 7 μM ATP, 37° C. 120 min
# Protocol: KinEASE-STK S1 serine/threonine kinase kit (Cisbio) was used to detect the inhibitory effect of the compound on IRAK4 kinase activity. The specific method was: the compound was dissolved in dimethyl sulfoxide, and then it was diluted with the buffer solution of the kit by equal gradient to make the final concentration range of the tested compound in the reaction system 10000 nM-0.038 nM, then 2.5 nM kinase, 1 μM biotinylated polypeptide substrate and 7 μM adenosine triphosphate (ATP) were added in sequence and incubated at 37° C. for 120 min. Subsequently, anti-phosphorylated serine/threonine antibody coupled with europium element compound and modified XL665 streptavidin were added to the reaction system to terminate the reaction. After incubating at room temperature for 1 h, the fluorescence intensity of each well at the emission wavelength of 620 nm and 665 nm and the excitation wavelength of 337 nm was determined in HTRF mode on the microplate reader EnVision(PerkinElmer), the ratio value was calculated using the formula Ratio=(665 nm/620 nm)×10^4. By comparing with the fluorescence intensity ratio of the control group, the inhibition rate of the compound at each concentration was calculated, and then the IC50 value of the compound was obtained by fitting the nonlinear curve with the logarithmic concentration-inhibition rate by GraphPad Prism 7.
row,IC50 [µM],SMILES
1,0.0442,"COc1cc2nn(C3CCN(CCOCCOc4ccc5c(c4)C(=O)N(C4CCC(=O)NC4=O)C5=O)CC3)cc2cc1NC(=O)c1cccc(C(F)(F)F)n1 (centres unmarked) [Control group 1, N-(2-(1-(2-(2-((2-(2,6-dioxopiperidin-3-yl)-1,3-dioxoisoindol-5-yl)oxy)ethoxy)ethyl)piperidin-4-yl)-6-methoxy-2H-indazol-5-yl)-6-(trifluoromethyl) pyridinecarboxamide, reference compound]"
2,0.0122,"COc1cc2nn(C3CCN(CCCCCNC(=O)c4ccc(OC)c(N5CCC(=O)NC5=O)c4)CC3)cc2cc1NC(=O)c1cccc(C(F)(F)F)n1 [Example 4, N-(2-(1-(5-(3-(2,4-dioxotetrahydropyrimidin-1 (2H)-yl)-4-methoxybenzamido)pentyl)piperidin-4-yl)-6-methoxy-2H-indazol-5-yl)-6-(trifluoromethyl) pyridinecarboxamide]"
3,0.0091,"COc1cc2nn(C3CCN(CCOCCNC(=O)c4ccc(OC)c(N5CCC(=O)NC5=O)c4)CC3)cc2cc1NC(=O)c1cccc(C(F)(F)F)n1 [Example 5, N-(2-(1-(2-(2-(3-(2,4-dioxotetrahydropyrim-idin-1 (2H)-yl)-4-methoxybenz-amido)ethoxy)ethyl)piperidin-4-yl)-6-me-thoxy-2H-indazol-5-yl)-6-(trifluoromethyl) pyridinecarboxamide]"
4,0.0105,"COc1cc2nn(C3CCN(CCOCCOCCNC(=O)c4ccc(OC)c(N5CCC(=O)NC5=O)c4)CC3)cc2cc1NC(=O)c1cccc(C(F)(F)F)n1 [Example 8, N-(2-(1-(2-(2-(2-(3-(2,4-dioxotetrahydropyrimidin-1 (2H)-yl)-4-methoxybenz-amido)ethoxy)ethoxy)ethyl)piperidin-4-yl)-6-methoxy-2H-indazol-5-yl)-6-(trifluoro-methyl) pyridin-carboxamide]"
5,0.0079,"COc1ccc(C(=O)N2CC3(CCN(CCN4CCC(n5cc6cc(NC(=O)c7cccc(C(F)(F)F)n7)c(C(C)(C)O)cc6n5)CC4)CC3)C2)cc1N1CCC(=O)NC1=O [Example 13, N-(2-(1-(2-(2-(3-(2,4-dioxotetrahydropyrimidin-1 (2H)-yl)-4-methoxybenzoyl)-2,7-diazaspiro [3.5]non-7-yl)ethyl)piperidin-4-yl)-6-(2-hydroxyprop-2-yl)-2H-indazol-5-yl)-6-(trifluoro-methyl) pyridinecarboxamide]"
6,0.0069,"COc1cc2nn(C3CCN(CCN4CCN(C(=O)c5ccc(OC)c(N6CCC(=O)NC6=O)c5)CC4)CC3)cc2cc1NC(=O)c1cccc(C(F)(F)F)n1 [Example 14, N-(2-(1-(2-(4-(3-(2,4-dioxotetrahydropyrimidin-1 (2H)-yl)-4-methoxybenzoyl)piperazin-1-yl)ethyl)piperidin-4-yl)-6-methoxy-2H-indazol-5-yl)-6-(trifluoromethyl) pyridinecarboxamide]"
7,0.006,"COc1cc2nn(C3CCN(CCN4CC5(CCN(C(=O)c6ccc(OC)c(N7CCC(=O)NC7=O)c6)CC5)C4)CC3)cc2cc1NC(=O)c1cccc(C(F)(F)F)n1 [Example 15, N-(2-(1-(2-(7-(3-(2,4-dioxo-tetrahydropyrim-idin-1 (2H)-yl)-4-methoxy-benzoyl)-2,7-diazaspiro [3.5]non-2-yl)ethyl)piperidin-4-yl)-6-methoxy-2H-in-dazol-5-yl)-6-(tri-fluoromethyl) pyridinecarbox-amide]"
8,0.0346,CCOc1ccc(C(=O)N2CCC3(CCC(CCN4CCC(n5cc6cc(NC(=O)c7cccc(C(F)(F)F)n7)c(C(C)(C)O)cc6n5)CC4)CC3)CC2)cc1N1CCC(=O)NC1=O [Example 24]
9,0.0086,CC(C)(O)c1cc2nn(C3CCN(CCCC4CCN(C(=O)c5ccc(Cl)c(N6CCC(=O)NC6=O)c5)CC4)CC3)cc2cc1NC(=O)c1cccc(C(F)(F)F)n1 [Example 29]
10,0.0305,CC(C)(O)c1cc2nn(C3CCN(CCC4CCC5(CC4)CCN(C(=O)c4ccc(OC(F)(F)F)c(N6CCC(=O)NC6=O)c4)CC5)CC3)cc2cc1NC(=O)c1cccc(C(F)(F)F)n1 [Example 37]
11,0.0345,"CC(C)(O)c1cc2nn(C3CCN(CCC4CCC5(CC4)CCN(C(=O)c4ccc(C(F)(F)F)c(N6CCC(=O)NC6=O)c4)CC5)CC3)cc2cc1NC(=O)c1cccc(C(F)(F)F)n1 [Example 38, N-(2-(1-(2-(3-(3-(2,4-dioxotetrahydro-pyrimidin-1 (2H)-yl)-4-(trifluoro-methyl)benzoyl)-3-azaspiro[5.5]undec-9-yl)ethyl)piperidin-4-yl)-6-(2-hydroxyprop-2-yl)-2H-indazol-5-yl)-6-(trifluoro-methyl) pyridinecarbox-amide]"
12,0.0092,COc1cc2nn([C@H]3CC[C@H](CN(C)CCC4CCN(C(=O)c5ccc(F)c(C6CCC(=O)NC6=O)c5)CC4)CC3)cc2cc1NC(=O)c1cccc(C(F)(F)F)n1 (some centres unmarked) [Example 52]
13,0.0038,"COc1cc2nn(C3CCC4(CC3)CCN(CC3CCN(C(=O)c5ccc(Cl)c(N6CCC(=O)NC6=O)c5)CC3)CC4)cc2cc1NC(=O)c1cccc(C(F)(F)F)n1 [Example 57, N-(2-(3-((1-(4-chloro-3-(2,4-dioxotetrahydro-pyrimidin-1 (2H)-yl)benzoyl)piperidin-4-yl)methyl)-3-azaspiro [5.5]undec-9-yl)-6-methoxy-2H-inda-zol-5-yl)-6-(triflu-oromethyl) pyridinecarbox-amide]"
14,0.011,"COc1cc2nn([C@H]3CC[C@@H](N4CCC5(CCN(C(=O)c6ccc(Cl)c(N7CCC(=O)NC7=O)c6)CC5)CC4)CC3)cc2cc1NC(=O)c1cccc(C(F)(F)F)n1 [Example 59, N-(2-((1s,4s)-4-(9-(4-chloro-3-(2,4-dioxotetrahydro-pyrimidin-1 (2H)-yl)benzoyl)-3,9-diazaspiro[5.5]undec-3-yl)cyclohexyl)-6-methoxy-2H-inda-zol-5-yl)-6-(trifluoro-methyl) pyridinecarbox-amide]"
15,0.128,"O=C1CCN(c2cc(C(=O)N3CCC4(CCC(CN5CCC(n6cc7cc(NC(=O)c8cccc(C(F)(F)F)n8)c(OC(F)(F)F)cc7n6)CC5)CC4)CC3)ccc2Cl)C(=O)N1 [Example 61, N-(2-(1-((3-(4-chloro-3-(2,4-dioxotetrahydro-pyrimidin-1 (2H)-yl)benzoyl)-3-azaspiro [5.5]undec-9-yl)methyl)piperidin-4-yl)-6-(trifluoromethoxy)-2H-indazol-5-yl)-6-(trifluoro-methyl) pyridinecarbox-amide]"
16,0.0044,CN(C[C@H]1CC[C@H](n2cc3cc(NC(=O)c4cccc(C(F)(F)F)n4)c(C(C)(C)O)cc3n2)CC1)C1CCC2(CC1)CCN(C(=O)c1ccc(Cl)c(N3CCC(=O)NC3=O)c1)CC2 [Example 63]

# Biological target: T2, IRAK4 protein in THP-1 cells (Homo sapiens, UniProt Q9NWZ3)
# T2 construct: endogenous in cells; host or cells: THP-1
# T2 sequence (Q9NWZ3 1-460): T1 sequence (Q9NWZ3 1-460)
# Test: Degradation of IRAK4 in THP-1 cells (Western blot)
# Format: cell-based
# Conditions: 24 hours, compound 1-3000 nM
# Protocol: Each well of the 24-well cell culture plate was inoculated with 0.95 mL THP-1 cells (stem cell bank of Chinese academy of sciences) with a cell density of 5×10^5 cells/well. The cell plate was placed in a 5% carbon dioxide incubator and cultured overnight at 37° C., then 50 μL compound in dimethyl sulfoxide was added. The final concentration of the compound was in the range of 1-3000 nM. After continuous cultivation for 24 hours, the cells were collected into a 1.5 mL centrifuge tube, centrifuged at 1000 rpm and 4° C. for 5 minutes. Cell precipitation was cleaned twice with 1-DPBS, resuspended cells were lysed with 200 μL lysate (cell lysate was Western and IP cell lysate (Beyotime), supplemented with 1 mM mixture of phenylmethylsulfonyl fluoride and protease inhibitor (Beyotime)), left on ice for 30 minutes, then centrifuged at 14000 g at 4° C. for 10 minutes, and the supernatant was taken to detect IRAK4 protein level by Western blot.
# Western blot method: The total protein concentration in the supernatant of cell lysis was determined by BCA protein quantitative kit (Tiangen). According to the concentration of total protein detected by BCA, the supernatant was adjusted to 0.2 μg/μL with PBS and 5× SDS-PAGE protein loading buffer (Beyotime), bathed in water at 100° C. for 10 minutes, then placed in ice bath for 5 minutes, centrifuged at 14000 g and 4° C. for 5 minutes, and then collected as WB loading sample. Prefabricated glue (KeyGEN) was used for protein electrophoresis with a loading amount of 10 μL (total protein 2 μg). After Tris-MOPS-SDS electrophoresis solution (Adamas), 120V constant pressure electrophoresis was performed. After electrophoresis, the protein on the adhesive strip was transferred to PVDF membrane with a constant current of […] for 50 minutes. After the membrane was transferred, the membrane was placed in 1×QuickBlock blocking buffer (Beyotime) and incubated for 30 minutes at room temperature. After blocking, PVDF membranes were incubated with IRAK4 primary antibody (Abcam) overnight at 4°, the membranes were washed with TBST buffer (2.4 g Tris, 8.8 g NaCl, 1.5 mL Tween 20, pH adjusted to 7.4, constant volume to 1 L) for 30 minutes, incubated with secondary antibody (Abcam) for 2 hours at room temperature, finally incubated with Clarity Western ECL Substrate(BIO-RAD) for 5 minutes for luminescence development, chemiluminescence imaging system (Clinx, chemiScope 6200 Touch) for development and protein mapping photography. The protein map was analyzed by Clinx chemiluminescence analysis software for grayscale values. Using the formula: grayscale correction value=(target protein grayscale value/corresponding internal reference grayscale value)×10^3, the grayscale correction value of each sample was calculated. The degradation rate was calculated by comparing with the grayscale correction value of the control group. Furthermore, DC50 and Dmax values of the compound were obtained by the nonlinear curve fitting with the logarithmic concentration-inhibition rate by GraphPad Prism 7.
row,DC50 [µM],SMILES
1,0.0381,"COc1cc2nn(C3CCN(CCOCCOc4ccc5c(c4)C(=O)N(C4CCC(=O)NC4=O)C5=O)CC3)cc2cc1NC(=O)c1cccc(C(F)(F)F)n1 (centres unmarked) [Control group 1, N-(2-(1-(2-(2-((2-(2,6-dioxopiperidin-3-yl)-1,3-dioxoisoindol-5-yl)oxy)ethoxy)ethyl)piperidin-4-yl)-6-methoxy-2H-indazol-5-yl)-6-(trifluoromethyl) pyridinecarboxamide, reference compound]"
